How the values were obtained:
[1] = molecular target: T1, CIC-1 ion channel (Rattus norvegicus, UniProt P35524); assay: Electrophysiological measurement of compound inhibition of CIC-1 in rat muscle (Gm in soleus fibres, three micro-electrodes); assay type: cell-based; details: Gm in individual fibres of whole rat soleus muscles, approx. 30° C., four increasing compound concentrations; read-out: Potency Range (EC50, inhibition of CIC-1 ion channel)
T1 construct: from tissue; host or cells: whole soleus muscle of 12-14 week old Wistar rats
T1 sequence (P35524 1-994): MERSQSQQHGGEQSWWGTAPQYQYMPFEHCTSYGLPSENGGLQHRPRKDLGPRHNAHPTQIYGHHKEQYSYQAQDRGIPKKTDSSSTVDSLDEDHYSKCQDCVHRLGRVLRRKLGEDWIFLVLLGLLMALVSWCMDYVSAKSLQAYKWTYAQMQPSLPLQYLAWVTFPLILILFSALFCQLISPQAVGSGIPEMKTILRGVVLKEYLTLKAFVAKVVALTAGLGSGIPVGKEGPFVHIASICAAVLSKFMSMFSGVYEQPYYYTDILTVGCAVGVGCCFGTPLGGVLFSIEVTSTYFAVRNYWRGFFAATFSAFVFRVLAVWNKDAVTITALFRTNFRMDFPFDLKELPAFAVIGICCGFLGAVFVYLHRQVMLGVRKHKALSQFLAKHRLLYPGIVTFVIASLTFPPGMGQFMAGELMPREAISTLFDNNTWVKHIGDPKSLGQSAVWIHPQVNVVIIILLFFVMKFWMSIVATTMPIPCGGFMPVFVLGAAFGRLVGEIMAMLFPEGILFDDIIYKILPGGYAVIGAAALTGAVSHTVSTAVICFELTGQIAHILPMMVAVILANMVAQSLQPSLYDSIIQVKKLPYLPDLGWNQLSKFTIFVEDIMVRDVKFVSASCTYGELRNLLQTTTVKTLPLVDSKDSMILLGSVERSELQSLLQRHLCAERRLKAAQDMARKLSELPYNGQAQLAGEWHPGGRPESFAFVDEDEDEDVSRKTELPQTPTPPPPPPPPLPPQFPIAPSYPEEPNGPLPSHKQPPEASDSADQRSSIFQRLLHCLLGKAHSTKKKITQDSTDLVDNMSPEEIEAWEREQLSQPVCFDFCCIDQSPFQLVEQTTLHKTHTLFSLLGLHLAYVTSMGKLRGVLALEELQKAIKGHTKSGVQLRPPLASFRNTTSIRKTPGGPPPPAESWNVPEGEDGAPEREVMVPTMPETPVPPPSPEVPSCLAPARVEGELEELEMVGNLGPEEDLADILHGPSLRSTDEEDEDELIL
Method: Apparent CIC-1 affinity was reported by the concentration of compound at which 50% of the compound's full inhibition of CIC-1 was observed (EC50) (see also WO2019/115777).
Experimentally, Gm was measured in individual fibres of whole rat soleus muscles using a three micro-electrodes technique described in this example and in full detail elsewhere (Riisager et al., Determination of cable parameters in skeletal muscle fibres during repetitive firing of action potentials. Journal of Physiology, 2014, 592, 4417-4429). Briefly, intact rat soleus muscles were dissected out from 12-14 week old Wistar rats and placed in an experimental chamber that was perfused with a standard Krebs Ringer solution containing 122 mM NaCl, 25 mM NaHCO3, 2.8 mM KCl, 1.2 mM KH2PO4, 1.2 mM MgSO4, 1.3 mM CaCl2, 5.0 mM D-glucose. During experiments, the solution was kept at approx. 30° C. and continuously equilibrated with a mixture of 95% O2 and 5% CO2, pH ~7.4. The experimental chamber was placed in Nikon upright microscope that was used to visualize individual muscle fibres and the three electrodes (glass pipettes filled with 2 M potassium citrate). For Gm measurements, the electrodes were inserted into the same fibre with known inter-electrode distances of 0.35-0.5 mm (V1-V2, X1) and 1.1-1.5 mm (V1-V3, X3). The membrane potential of the impaled muscle fibre was recorded by all electrodes. Two of the electrodes were furthermore used to inject 50 ms current pulses of −30 nA. […] The steady state voltage deflection at each distance was divided by the magnitude of current injected (−30 nA) and the resulting transfer resistances were plotted against inter-electrode distance and the data was fitted to a mono-exponential function from which Gm could be calculated using linear cable theory.
To establish a dose response relationship, Gm was first determined in 10 muscle fibres in the absence of compound and then at four increasing compound concentrations with Gm determinations in 5-10 fibres at each concentration. The average Gm values at each concentration were plotted against compound concentration and the data was fitted to sigmoidal function to obtain an EC5o value.

[2] = test system: isolated rat soleus nerve-muscle preparations; assay: Measurement of force in an in vitro model: recovery of nerve-stimulated contractile force after tubocurarine; details: 40 min, after 40 mins of compound exposure, tubocurarine (115 nM) for 90 minutes, read-out: Point increase (%): percentage increase of initial force that was restored; for activation at 10 µM: 10 μM of test compound; for activation at 50 µM: 50 μM of test compound
Method: In one aspect, the invention relates to a method for recovery of force in muscles with neuromuscular dysfunction, said method comprising administering a compound or a composition as defined herein to a subject in need thereof. The term “recovery of force in muscles with neuromuscular dysfunction” as used herein refers to the ability of a compound to recover contractile force in nerve-stimulated healthy rat muscle after exposure to submaximal concentration (115 nM) of tubocurarine for 90 minutes.
Recovery of force is quantified as the percentage of the force prior to tubocurarine that is recovered after addition of the compound. In one embodiment, said recovery of force is >5%, such as >10%, such as >15%, such as >20%, such as >25%, such as >30%, such as >35%.
The current disclosure relates to compounds that inhibit CIC-1 ion channels and increase muscle excitability and thereby improve muscle function in clinical conditions where muscle activation is failing. Such conditions result in loss of contractile function of skeletal muscle, weakness and excessive fatigue. In this series of experiments the compounds were tested for their ability to restore contractile function of isolated rat muscle when the neuromuscular transmission had been compromised akin to neuromuscular disorders.
Experimentally, soleus muscles from 4-5 week old rats were isolated with the motor nerve remaining attached. The nerve-muscle preparations were mounted in experimental setups that enabled electrical stimulation of the motor nerve. Stimulation of the motor nerve led to activation of the muscle fibres and ensuing force production that was recorded. The nerve-muscle preparations were also in these experiments incubated in the standard Krebs Ringer (see example 15) and the solution was heated to 30° C. and continuously equilibrated with a mixture of 95% O2 and 5% CO2, pH ~7.4.
After mounting the nerve-muscle preparation in the experimental setup, the contractile function of the muscle was initially assessed under the control conditions. Sub-maximal concentration of tubocurarine (115 nM), an acetylcholine receptor antagonist, was then added to the experimental bath to impose partial inhibition of the ability of the motor nerve to activate the muscle fibres. The experimental condition mimics the failing neuromuscular transmission in a range of neuromuscular disorders. After addition of tubocurarine the contractile force declined over the next 90 minutes to 10-50% of the control force. The test compound was then added to obtain the required compound concentration in the bath and the contractile force recovered was measured. To quantify the ability of the compound to restore force the percentage of the initial force that was restored was determined after 40 mins of compound exposure and the point increase is reported in Tables 3 to 7.

SMILES | EC50 [1] [nM] | activation at 10 µM [2] [%] | activation at 50 µM [2] [%]
Cc1c(Cl)cc2c(c1C(=O)O)CCCCC2 [Compound A-33, 3-Chloro-2-methyl-6,7,8,9-tetrahydro-5H-benzo[7]annulene-1-carboxylic acid] | 2000 to 10000 | 17 | 
Cc1cc2c(c(C(=O)O)c1Cl)C1CCC2C1 (stereo not drawn) [Compound A-20, 4-chloro-5-methyltricyclo[6.2.1.0^2,7]undeca-2,4,6-triene-3-carboxylic acid] | 2000 to 10000 |  | 38
COc1c(Cl)cc2c(c1C(=O)O)CCC2 [Compound A-6, 6-Chloro-5-methoxy-2,3-dihydro-1H-indene-4-carboxylic acid] | 200 to 2000 | 42 | 
O=C(O)c1c(F)c(Cl)cc2c1CCCO2 [Compound A-39, 7-Chloro-6-fluoro-3,4-dihydro-2H-1-benzopyran-5-carboxylic acid] | 200 to 2000 | 59 | 
Cc1cc2c(c(C(=O)O)c1C)CCC2 [Compound A-4, 5,6-dimethyl-2,3-dihydro-1H-indene-4-carboxylic acid] | 10000 to 20000 |  | 30
O=C(O)c1c(Cl)c(F)cc2c1N(Cc1ccccc1)CCC2 [Compound A-74, 1-Benzyl-7-chloro-6-fluoro-1,2,3,4-tetrahydro-8-quinolinecarboxylic acid] | 200 to 2000 | 11 | 
Cc1c(Cl)cc2c(c1C(=O)O)CCCC2 [Compound A-9, 3-Chloro-2-methyl-5,6,7,8-tetrahydronaphthalene-1-carboxylic acid] | 2000 to 10000 | 14 | 
Cc1cc2c(c(C(=O)O)c1F)CCCC2 [Compound A-49, 2-Fluoro-3-methyl-5,6,7,8-tetrahydronaphthalene-1-carboxylic acid] | 200 to 2000 | 40 | 
O=C(O)c1c(F)c(Cl)cc2c1NCCC2 [Compound A-41, 6-Chloro-7-fluoro-1,2,3,4-tetrahydroquinoline-8-carboxylic acid] | 2000 to 10000 | 49 | 
COc1c(F)cc2c(c1C(=O)O)CCCC2 [Compound A-18, 3-Fluoro-2-methoxy-5,6,7,8-tetrahydronaphthalene-1-carboxylic acid] | 200 to 2000 | 46 | 
O=C(O)c1c(Cl)c(Cl)cc2c1CCCC2 [Compound A-30, 2,3-Dichloro-5,6,7,8-tetrahydronaphthalene-1-carboxylic acid] | 200 to 2000 | 45 | 
O=C(O)c1c2c(cc(Cl)c1OC(F)F)CCC2 [Compound A-10, 6-Chloro-5-(difluoromethoxy)-2,3-dihydro-1H-indene-4-carboxylic acid] | 2000 to 10000 | 36 | 
O=C(O)c1c(F)c(Cl)cc2c1N(Cc1ccsc1)CCC2 [Compound A-70, 6-Chloro-7-fluoro-1-[(3-thienyl)methyl]-1,2,3,4-tetrahydro-8-quinolinecarboxylic acid] | 200 to 2000 | 25 | 
CC1(C)CCc2cc(Cl)cc(C(=O)O)c2O1 [Compound A-53, 6-Chloro-2,2-dimethyl-3,4-dihydro-2H-1-benzopyran-8-carboxylic acid] | 200 to 2000 | 43 | 
C=Cc1c(Cl)cc2c(c1C(=O)O)CCCC2 [Compound A-35, 3-Chloro-2-ethenyl-5,6,7,8-tetrahydronaphthalene-1-carboxylic acid] | 200 to 2000 | 16 | 
COc1c(Cl)cc2c(c1C(=O)O)OCCC2 [Compound A-69, 6-Chloro-7-methoxy-3,4-dihydro-2H-1-benzopyran-8-carboxylic acid] | 200 to 2000 | 55 | 
COc1c(Cl)cc2c(c1C(=O)O)SCCC2 [Compound A-31, 6-chloro-7-methoxy-3,4-dihydro-2H-1-benzothiopyran-8-carboxylic acid] | 200 to 2000 | 48 | 
Cc1c(Cl)cc2c(c1C(=O)O)CCC2 [Compound A-1, 6-Chloro-5-methyl-2,3-dihydro-1H-indene-4-carboxylic acid] | 10000 to 20000 |  | 23
Cc1cc2c(c(C(=O)O)c1F)OCCC2 [Compound A-50, 7-fluoro-6-methyl-3,4-dihydro-2H-1-benzopyran-8-carboxylic acid] | 2000 to 10000 |  | 51
COc1c(Cl)cc2c(c1C(=O)O)CCCCC2 [Compound A-22, 3-Chloro-2-methoxy-6,7,8,9-tetrahydro-5H-benzo[7]annulene-1-carboxylic acid] | 200 to 2000 | 33 | 
O=C(O)c1c(F)c(F)cc2c1CCCC2 [Compound A-44, 2,3-Difluoro-5,6,7,8-tetrahydronaphthalene-1-carboxylic acid] | 2000 to 10000 |  | 59
COc1c(Cl)cc2c(c1C(=O)O)CCCC2(F)F [Compound A-73, 3-Chloro-5,5-difluoro-2-methoxy-5,6,7,8-tetrahydro-1-naphthoic acid] | 200 to 2000 | 23 | 
O=C(O)c1c(F)c(Cl)cc2c1SCCC2 [Compound A-38, 6-Chloro-7-fluoro-3,4-dihydro-2H-1-benzothiopyran-8-carboxylic acid] | 200 to 2000 | 48 | 
Cc1c(F)cc2c(c1C(=O)O)CCCC2 [Compound A-52, 3-Fluoro-2-methyl-5,6,7,8-tetrahydronaphthalene-1-carboxylic acid] | 2000 to 10000 | 18 | 

Source: US20260199273A1, “Compounds for the Treatment of Neuromuscular Disorders” (NMD PHARMA A/S, priority 2022, published 2026)
